Experimental data from US20130028865A1, “Combination of a Macrocyclic Inhibitor of HCV, A Non-Nucleoside and a Nucleoside” (MEDIVIR AB, priority 2010, published 2013).
Read-outs that look alike come from different tables or passages of the source.

Columns and labels:
[1] = test system: HCV RNA replication (HCV type 1b replicon in Huh-7 luc/neo cells); experiment: HCV replicon assay (Huh-Luc, luciferase read-out); assay type: cell-based; conditions: Hepatitis C virus, Huh-7, 72 h, HCV replicon test, three days incubation
Source text: The EC50 ratio between the active ingredients of formula I, II and III in the combinations of the invention may vary. As used herein the term “EC50 ratio” refers to the ratio of the EC50 value of the compound of formula I to the EC50 value of the compound of formula II, and to the EC50 value of the compound of formula III, said EC50 values being obtained in the HCV replicon test. The latter in particular is the test method described hereinafter.
The in vitro antiviral activity against HCV of the compound of formula I or of formula II or of formula III can be tested in a cellular HCV replicon system based on Lohmann et al. (1999) Science 285:110-113, with the further modifications described by Krieger et al. (2001) Journal of Virology 75: 4614-4624 (incorporated herein by reference), which is further exemplified in the examples section. […]
The replicon cells were plated in 384 well plates in the presence of the test and control compounds which were added in various concentrations. Following an incubation of three days, HCV replication was measured by assaying luciferase activity (using standard luciferase assay substrates and reagents, and a Perkin Elmer ViewLux™ ultraHTS microplate imager). […] The inhibitory activity of the compound was monitored on the Huh-Luc cells, enabling a dose-response curve for each test compound. […]

[2] = test system: HCV RNA replication (HCV type 1b replicon in Huh-7 luc/neo cells); conditions: HCV replicon test; reported in WO2010/003658; cited from earlier work

## COc1ccc2c(O[C@@H]3C[C@H]4C(=O)N[C@]5(C(=O)NS(=O)(=O)C6CC6)C[C@H]5C=CCCCCN(C)C(=O)[C@@H]4C3)cc(-c3nc(C(C)C)cs3)nc2c1C (stereo in doubt) [compound I, (1R,4R,6S,15R,17R)-cis-N-[17-[2-(4-isopropylthiazole-2-yl)-7-methoxy-8-methyl-quinolin-4-yloxy]-13-methyl-2,14-dioxo-3,13-diazatricyclo[13.3.0.0^4,6]octadec-7-ene-4-carbonyl](cyclopropyl)sulfonamide]
[1]
  EC50: 8 nM

## C[C@@H]1[C@H](n2ccc(N)nc2=O)O[C@@](CO)(N=[N+]=[N-])[C@H]1O [compound II, 4-amino-1-((2R,3S,4S,5R)-5-azido-4-hydroxy-5-hydroxymethyl-3-methyl-tetrahydrofuran-2-yl)-1H-pyrimidin-2-one]
[1]
  EC50: 5000 nM

## COc1ccc2c(c1)C=C1Cn3c-2c(C2CCCCC2)c2ccc(cc23)C(=O)NS(=O)(=O)N(C)CCOCCN(C)C1=O [compound III]
[2]
  EC50: 70 nM
